Source: publication PMC11429243, “The Fluorinated NAD Precursors Enhance FK866 Cytotoxicity by Activating SARM1 in Glioblastoma Cells” (Biology, 2024)

Assays:
NRK2 = target: T1, NRK2 (Homo sapiens, UniProt Q9NPI5); experiment: HPLC of conversion of NR to NMN by purified enzyme; type: biochemical
T1 construct: gene NMRK2; recombinant human NRK2 (CDS of NM_170678.2) in pET22b, E. coli Rosetta (DE3)

NRK1 = target: T2, NRK1 (Homo sapiens, UniProt Q9NWW6); experiment: HPLC of conversion of NR to NMN by purified enzyme; type: biochemical
T2 construct: gene NMRK1; recombinant human NRK1 (CDS of NM_017881.3) in pET22b, E. coli Rosetta (DE3)
T2 sequence (Q9NWW6 1-199): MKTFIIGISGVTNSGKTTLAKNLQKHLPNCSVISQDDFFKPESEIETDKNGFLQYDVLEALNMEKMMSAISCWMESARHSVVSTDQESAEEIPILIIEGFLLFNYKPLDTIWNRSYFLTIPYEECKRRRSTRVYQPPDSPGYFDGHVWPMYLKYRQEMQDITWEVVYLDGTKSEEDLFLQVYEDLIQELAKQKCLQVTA

T1 sequence (Q9NPI5 whole entry): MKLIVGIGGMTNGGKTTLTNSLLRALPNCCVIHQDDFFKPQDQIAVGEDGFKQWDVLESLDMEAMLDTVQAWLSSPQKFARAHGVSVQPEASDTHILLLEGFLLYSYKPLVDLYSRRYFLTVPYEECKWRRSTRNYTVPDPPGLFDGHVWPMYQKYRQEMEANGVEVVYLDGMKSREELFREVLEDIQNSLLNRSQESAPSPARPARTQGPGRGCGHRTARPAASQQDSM

NC(=O)c1ccc[n+]([C@@H]2O[C@H](CO)[C@@H](O)[C@H]2O)c1 [NR, nicotinamide riboside]
HPLC of conversion of NR to NMN by purified enzyme (NRK2): 17.28 pmol NR/µg/h
HPLC of conversion of NR to NMN by purified enzyme (NRK1): 12.03 pmol NR/µg/h
